Test results: patent EP1025114B1, “3'-N-MODIFIED 6-O-SUBSTITUTED ERYTHROMYCIN KETOLIDE DERIVATIVES HAVING ANTIBACTERIAL ACTIVITY” (priority 1997, dated 1999)

What was measured:
Experiment in all cases: In vitro antibacterial activity, agar dilution MIC
Type in all cases: cell-based
[1] = test system: Staphylococcus aureus CMX 642A; conditions: Staphylococcus aureus CMX 642A (organism code DD); BHI agar, 35-37 °C, 20 to 24 hours; unit assumed
Summary of the method: (§1)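 Agar dilution on BHI agar: twelve successive compound dilutions, inoculated by Steers replicator with 1:100 dilutions (1:10 for slow growers such as Streptococcus). MIC is lowest concentration giving no growth, slight haze or sparse colonies versus drug-free control, judged visually; same-class reference antibiotic run alongside.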

[2] = test system: Mycobacterium smegmatis ATCC 114; conditions: Mycobacterium smegmatis ATCC 114 (organism code UU); BHI agar, 35-37 °C, 20 to 24 hours; unit assumed
Summary of the method: as §1

[3] = test system: Micrococcus luteus ATCC 9341; conditions: Micrococcus luteus ATCC 9341 (organism code OO); BHI agar, 35-37 °C, 20 to 24 hours; unit assumed
Summary of the method: as §1

[4] = test system: Streptococcus agalactiae CMX 508; conditions: Streptococcus agalactiae CMX 508 (organism code KK); BHI agar, 35-37 °C, 20 to 24 hours; unit assumed
Summary of the method: as §1

[5] = test system: Streptococcus pyogenes EES61; conditions: Streptococcus pyogenes EES61 (organism code LL); BHI agar, 35-37 °C, 20 to 24 hours; unit assumed
Summary of the method: as §1

[6] = test system: Staphylococcus aureus NCTC10649M; conditions: Staphylococcus aureus NCTC10649M (organism code EE); BHI agar, 35-37 °C, 20 to 24 hours; unit assumed
Summary of the method: as §1

[7] = test system: Streptococcus pyogenes 930; conditions: Streptococcus pyogenes 930 (organism code MM); BHI agar, 35-37 °C, 20 to 24 hours; unit assumed
Summary of the method: as §1

[8] = test system: Staphylococcus aureus A5177; conditions: Staphylococcus aureus A5177 (organism code BB); BHI agar, 35-37 °C, 20 to 24 hours; unit assumed
Summary of the method: as §1

[9] = test system: Streptococcus Pheumoniae GYR 1171; conditions: Streptococcus Pheumoniae GYR 1171 (organism code YY); BHI agar, 35-37 °C, 20 to 24 hours; unit assumed
Summary of the method: as §1

[10] = test system: Staphylococcus aureus A-5278; conditions: Staphylococcus aureus A-5278 (organism code CC); BHI agar, 35-37 °C, 20 to 24 hours; unit assumed
Summary of the method: as §1

[11] = test system: Streptococcus Pheumoniae ATCC6303; conditions: Streptococcus Pheumoniae ATCC6303 (organism code XX); BHI agar, 35-37 °C, 20 to 24 hours; unit assumed
Summary of the method: as §1

Escherichia coli JUHL = Escherichia coli JUHL (organism code QQ); BHI agar, 35-37 °C, 20 to 24 hours; unit assumed
Summary of the method: as §1

Escherichia coli DC-2 = Escherichia coli DC-2 (organism code SS); BHI agar, 35-37 °C, 20 to 24 hours; unit assumed
Summary of the method: as §1

[12] = test system: Haemophilis Influenzae DILL AMP R; conditions: Haemophilis Influenzae DILL AMP R (organism code WW); BHI agar, 35-37 °C, 20 to 24 hours; unit assumed
Summary of the method: as §1

[13] = test system: Streptococcus Pheumoniae 5649; conditions: Streptococcus Pheumoniae 5649 (organism code ZZA); BHI agar, 35-37 °C, 20 to 24 hours; unit assumed
Summary of the method: as §1

[14] = test system: Enterococcus faecium ATCC 8043; conditions: Enterococcus faecium ATCC 8043 (organism code II); BHI agar, 35-37 °C, 20 to 24 hours; unit assumed
Summary of the method: as §1

[15] = test system: Micrococcus luteus ATCC 4698; conditions: Micrococcus luteus ATCC 4698 (organism code PP); BHI agar, 35-37 °C, 20 to 24 hours; unit assumed
Summary of the method: as §1

[16] = test system: Streptococcus pyogenes PIU 2548; conditions: Streptococcus pyogenes PIU 2548 (organism code NN); BHI agar, 35-37 °C, 20 to 24 hours; unit assumed
Summary of the method: as §1

[17] = test system: Streptococcus bovis A-5169; conditions: Streptococcus bovis A-5169 (organism code JJ); BHI agar, 35-37 °C, 20 to 24 hours; unit assumed
Summary of the method: as §1

Escherichia coli SS = Escherichia coli SS (organism code RR); BHI agar, 35-37 °C, 20 to 24 hours; unit assumed
Summary of the method: as §1

[18] = test system: Streptococcus Pheumoniae 5979; conditions: Streptococcus Pheumoniae 5979 (organism code ZZ); BHI agar, 35-37 °C, 20 to 24 hours; unit assumed
Summary of the method: as §1

[19] = test system: Staphylococcus epidermidis 3519; conditions: Staphylococcus epidermidis 3519 (organism code HH); BHI agar, 35-37 °C, 20 to 24 hours; unit assumed
Summary of the method: as §1

[20] = test system: Staphylococcus aureus 1775; conditions: Staphylococcus aureus 1775 (organism code GG); BHI agar, 35-37 °C, 20 to 24 hours; unit assumed
Summary of the method: as §1

Candida albicans CCH 442 = Candida albicans CCH 442 (organism code TT); BHI agar, 35-37 °C, 20 to 24 hours; unit assumed
Summary of the method: as §1

[21] = test system: Nocardia Asteroides ATCC9970; conditions: Nocardia Asteroides ATCC9970 (organism code VV); BHI agar, 35-37 °C, 20 to 24 hours; unit assumed
Summary of the method: as §1

[22] = test system: Staphylococcus aureus CMX 553; conditions: Staphylococcus aureus CMX 553 (organism code FF); BHI agar, 35-37 °C, 20 to 24 hours; unit assumed
Summary of the method: as §1

[23] = test system: Staphylococcus aureus ATCC 6538P; conditions: Staphylococcus aureus ATCC 6538P (organism code AA); BHI agar, 35-37 °C, 20 to 24 hours; unit assumed
Summary of the method: as §1

SMILES | MIC [1] [µg/mL] | MIC [2] [µg/mL] | MIC [3] [µg/mL] | MIC [4] [µg/mL] | MIC [5] [µg/mL] | MIC [6] [µg/mL] | MIC [7] [µg/mL] | MIC [8] [µg/mL] | MIC [9] [µg/mL] | MIC [10] [µg/mL] | MIC [11] [µg/mL] | MIC (Escherichia coli JUHL) [µg/mL] | MIC (Escherichia coli DC-2) [µg/mL] | MIC [12] [µg/mL] | MIC [13] [µg/mL] | MIC [14] [µg/mL] | MIC [15] [µg/mL] | MIC [16] [µg/mL] | MIC [17] [µg/mL] | MIC (Escherichia coli SS) [µg/mL] | also measured
CC[C@H]1OC(=O)[C@H](C)C(=O)[C@H](C)[C@@H](O[C@@H]2O[C@H](C)C[C@H](N(C)CCF)[C@H]2O)[C@](C)(OCC=Cc2cnc3ccccc3c2)C[C@@H](C)C(=O)[C@H](C)[C@H]2NC(=O)O[C@@]21C [Example 7, Compound of Formula (II); R is -CH2CH=CH-(3-quinolyl), R^p is H, W is absent, R^w is H, R^1 is CH2CH2F, R^2 is CH3] | 0.1 | 1.56 | 0.05 | 0.05 | 0.01 | 0.1 | 12.5 | 0.2 | 0.03 | > 100 | 0.03 | > 100 | > 100 | 8 | 0.25 | 0.05 | 0.39 | 0.39 | 0.01 | 0.39 | MIC [18]: 16 µg/mL; MIC [19]: 0.2 µg/mL; MIC [20]: > 100 µg/mL; MIC (Candida albicans CCH 442): > 100 µg/mL; MIC [21]: 0.39 µg/mL; MIC [22]: 0.05 µg/mL; MIC [23]: 0.1 µg/mL
C=CCN(C)[C@H]1C[C@@H](C)O[C@@H](O[C@@H]2[C@@H](C)C(=O)[C@@H](C)C(=O)O[C@H](CC)[C@@]3(C)OC(=O)N[C@@H]3[C@@H](C)C(=O)[C@H](C)C[C@@]2(C)OCC=Cc2cnc3ccccc3c2)[C@@H]1O [Example 6, Compound of Formula (II); R is -CH2CH=CH-(3-quinolyl), R^p is H, W is absent, R^w is H, R^1 is CH2CH=CH2, R^2 is CH3] | 0.1 | 0.2 | 0.02 | 0.05 | 0.02 | 0.05 | 3.1 | 0.05 | ≤ 0.004 | > 100 | ≤ 0.004 | 50 | 100 | 4 | 0.25 | 0.05 | 0.2 | 0.2 | 0.02 | 0.2 | MIC [18]: 16 µg/mL; MIC [19]: 0.2 µg/mL; MIC [20]: > 100 µg/mL; MIC (Candida albicans CCH 442): > 100 µg/mL; MIC [21]: 0.1 µg/mL; MIC [22]: 0.05 µg/mL; MIC [23]: 0.05 µg/mL
CC[C@H]1OC(=O)[C@H](C)C(=O)[C@H](C)[C@@H](O[C@@H]2O[C@H](C)C[C@H](N(C)CC3CC3)[C@H]2O)[C@](C)(OCC=Cc2cnc3ccccc3c2)C[C@@H](C)C(=O)[C@H](C)[C@H]2NC(=O)O[C@@]21C [Example 15, Compound of Formula (II); R is -CH2CH=CH-(3-quinolyl), R^p is H, W is absent, R^w is H, R^1 is CH2-(cyclo-C3H5), R^2 is CH3] | 0.39 | 0.78 | 0.05 | 0.05 | 0.02 | 0.39 | 25 | 0.39 | 0.03 | > 100 | 0.03 | > 100 | > 100 | 8 | 0.25 | 0.05 | 0.39 | 0.1 | 0.02 | 0.2 | MIC [18]: > 128 µg/mL; MIC [19]: 0.39 µg/mL; MIC [20]: > 100 µg/mL; MIC (Candida albicans CCH 442): > 100 µg/mL; MIC [21]: 0.2 µg/mL; MIC [22]: 0.39 µg/mL; MIC [23]: 0.39 µg/mL
CCOC(=O)CN(C)[C@H]1C[C@@H](C)O[C@@H](O[C@@H]2[C@@H](C)C(=O)[C@@H](C)C(=O)O[C@H](CC)[C@@]3(C)OC(=O)N[C@@H]3[C@@H](C)C(=O)[C@H](C)C[C@@]2(C)OCC=Cc2cnc3ccccc3c2)[C@@H]1O [Example 5, Compound of Formula (II); R is -CH2CH=CH-(3-quinolyl), R^p is H, W is absent, R^w is H, R^1 is CH2C(O)-O-CH2CH3, R^2 is CH3.] | 12.5 | 25 | 0.78 | 1.56 | 0.39 | 12.5 | > 100 | 12.5 | 0.25 | > 100 | 0.25 | > 100 | > 100 | 128 | 2 | 6.2 | 6.2 | 6.2 | 1.56 | 25 | MIC [18]: > 128 µg/mL; MIC [19]: 12.5 µg/mL; MIC [20]: > 100 µg/mL; MIC (Candida albicans CCH 442): > 100 µg/mL; MIC [21]: 25 µg/mL; MIC [22]: 12.5 µg/mL; MIC [23]: 6.2 µg/mL
CC[C@H]1OC(=O)[C@H](C)C(=O)[C@H](C)[C@@H](O[C@@H]2O[C@H](C)C[C@H](N(C)CC#N)[C@H]2O)[C@](C)(OCC=Cc2cnc3ccccc3c2)C[C@@H](C)C(=O)[C@H](C)[C@H]2NC(=O)O[C@@]21C [Example 9, Compound of Formula (II); R is -CH2CH=CH-(3-quinolyl), R^p is H, W is absent, R^w is H, R^1 is CH2-CN, R^2 is CH3-] | 0.1 | 12.5 | 0.02 | 0.01 | 0.01 | 0.1 | 12.5 | 0.1 | 0.03 | > 100 | 0.03 | > 100 | > 100 | 8 | 0.5 | 0.1 | 0.2 | 0.39 | 0.01 | 0.2 | MIC [18]: 128 µg/mL; MIC [19]: 0.2 µg/mL; MIC [20]: > 100 µg/mL; MIC (Candida albicans CCH 442): > 100 µg/mL; MIC [21]: 0.78 µg/mL; MIC [22]: 0.05 µg/mL; MIC [23]: 0.1 µg/mL
